The numbers were not newly measured in patent US12453351B2, “Herbicide compatibility improvement” (Monsanto Technology LLC, priority 2005, dated 2025), which cites them from elsewhere.

For the series the following is noted: at 25° C.

For the compound `O=C(O)CNCP(=O)(O)O` [Glyphosate], the Solubility in water is reported as 1.16 % by weight.
